In US5591741A, “Fungicidal spiroheterocyclic derivatives” (American Cyanamid Company, priority 1993, dated 1997):

Key:
Plasmopara viticola = experiment: Antisporulant activity against vine downy mildew (PVA); type: in vivo; settings: vine leaves, antisporulant foliar spray, 600 ppm, 750 l/ha
In short: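 Cabernet Sauvignon vines (~8 cm) inoculated on lower leaf surfaces with 5×10^4 zoosporangia/ml, held 24 h at 21° C high humidity then 24 h glasshouse. Infected leaves sprayed underside with 600 ppm compound in 1:1 water/acetone, 0.04% Tween 20, 750 l/ha; 96 h glasshouse, 24 h humidity. Sporulating leaf area rated versus control.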

Alternaria solani = experiment: Activity against tomato early blight (AS); type: in vivo; settings: Table VI; tomato seedlings, contact prophylactic foliar spray, 4 days
In short: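 Foliar contact prophylactic spray on tomato seedlings (cv Outdoor Girl, second true leaf expanded) in acetone/water 50:50 with 0.04% Tween 20; 24 h at 20° C, 40% R.H., then inoculation with 10^4 spores/ml A. solani conidia. Kept moist at 21° C; lesion cover rated 4 days post-inoculation against untreated or diluent-sprayed controls.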

Botrytis cinerea = experiment: Direct protectant activity against broad bean grey mould (BCB); type: in vivo; settings: direct protectant foliar spray, 600 ppm, 4 days
In short: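 Broad bean plants (cv The Sutton, two leaf pairs) sprayed on upper leaf surfaces at 600 ppm, then inoculated 24 h later with 10^6 conidia/ml. Kept 4 days at 22 °C, high humidity; disease control rated from % leaf area with lesions against untreated or diluent controls.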

Leptosphaeria nodorum = experiment: Activity against wheat leafspot (LN); type: in vivo; settings: direct therapeutic foliar spray, 600 ppm, 6-8 days
In short: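 Wheat cv Norman at single-leaf stage spray-inoculated with 1.5×10^6 conidia/ml, held 24 h at high humidity, then sprayed therapeutically with test compound at 600 ppm. Kept 6-8 days at 22° C, 70% humidity; lesion density per leaf rated against untreated or diluent-sprayed controls.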

[1] = test system: Erysiphe graminis f.sp. hordei; experiment: Activity against barley powdery mildew, direct therapeutic (EGT); type: in vivo; settings: direct therapeutic foliar spray, 600 ppm, up to 7 days
In short: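 Barley seedlings (cv. Golden Promise, single-leaf stage) were dusted with mildew conidia one day before a therapeutic foliar spray of 600 ppm compound. Plants were kept at 18 °C and 40% humidity for up to 7 days, and sporulating leaf area was rated against untreated or diluent-sprayed controls.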

[2] = test system: Erysiphe graminis f.sp. hordei; experiment: Direct protectant activity against barley powdery mildew (EGP); type: in vivo; settings: direct protectant foliar spray, 8 days
In short: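 Barley seedlings (cv Golden Promise, single-leaf stage) were foliar-sprayed, held 24 h at 18 °C/40% RH, then dusted with mildew conidia. After 8 days at 18 °C/40% RH, sporulating leaf area was scored as a rating against untreated or diluent-sprayed controls.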

Phytophthora infestans = type: in vivo; settings: tomato, direct protectant foliar spray
[3] = test system: Pseudocercosporella herpotrichoides; experiment: Activity against wheat eyespot in-vitro (PHI); type: cell-based; settings: 10 ppm, 10 days, 20° C., mycelial growth
In short: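 P. herpotrichoides mycelial fragments (5×10^4/ml) grown in half-strength PDB with compound at 10 ppm final, added from acetone. Incubated 10 days at 20 °C; mycelial growth rated against untreated or diluent controls.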

Rhizoctonia solani = experiment: Activity against Rhizoctonia in-vitro (RSI); type: cell-based; settings: 10 ppm, 10 days, 20° C., mycelial growth
In short: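 R. solani mycelial fragments (5×10^4/ml) in half-strength Potato Dextrose Broth with compound added from acetone to 10 ppm final. Mycelial growth assessed after 10 days at 20° C, rated against untreated or diluent control.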

Venturia inaequalis = experiment: Activity against apple scab in-vitro (VII); type: cell-based; settings: 10 ppm, 10 days, 20° C., mycelial growth
In short: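 Compound in acetone was tested at 10 ppm final in half-strength Potato Dextrose Broth inoculated with V. inaequalis mycelial fragments and spores at 5×10^4 propagules/ml. After 10 days at 20° C, mycelial growth was rated against untreated or diluent controls.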

Pyricularia oryzae = type: in vivo; settings: rice seedlings, direct therapeutic foliar spray, 600 ppm, 4-5 days

Structure (SMILES) | disease control rating PVA (Plasmopara viticola) | disease control rating AS (Alternaria solani) | disease control rating BCB (Botrytis cinerea) | disease control rating LN (Leptosphaeria nodorum) | disease control rating EGT [1] | disease control rating EGP [2] | disease control rating PIP (Phytophthora infestans) | disease control rating PHI [3] | disease control rating RSI (Rhizoctonia solani) | disease control rating VII (Venturia inaequalis) | disease control rating PO (Pyricularia oryzae)
CCC(C)(C)C1CCC2(CC1)CC(N1CC(C)CC(C)C1)CO2 (centres unmarked) [Compound 52] | 0 (less than 50% disease control) | 0 (less than 50% disease control) | 0 (less than 50% disease control) | 0 (less than 50% disease control) | 2 (greater than 80% disease control) | 2 (greater than 80% disease control) | 0 (less than 50% disease control) | 1 (about 50-80% disease control) | 1 (about 50-80% disease control) | 1 (about 50-80% disease control) | 0 (less than 50% disease control)
CC(C)(C)C1CCC2(CC1)CC(CCNC1CCCCC1)CO2 (centres unmarked) [Compound 189, 8-t-Butyl-3-cyclohexylaminoethyl-1-oxaspiro(4,5)decane] | 0 (less than 50% disease control) | 0 (less than 50% disease control) | 0 (less than 50% disease control) | 0 (less than 50% disease control) | 2 (greater than 80% disease control) | 2 (greater than 80% disease control) | 1 (about 50-80% disease control) | 0 (less than 50% disease control) | 0 (less than 50% disease control) | 1 (about 50-80% disease control) | 0 (less than 50% disease control)
CC(C)(C1CCCCC1)C1CCC2(CC1)CC(NC1CCCCC1)CO2 (centres unmarked) [Compound 142] | 0 (less than 50% disease control) | 0 (less than 50% disease control) | 0 (less than 50% disease control) | 0 (less than 50% disease control) | 2 (greater than 80% disease control) | 2 (greater than 80% disease control) | 1 (about 50-80% disease control) | 2 (greater than 80% disease control) | 2 (greater than 80% disease control) | 2 (greater than 80% disease control) | 0 (less than 50% disease control)
CCCCCCNC1COC2(CCCCC2)C1 (centres unmarked) [Compound 32] | 0 (less than 50% disease control) | 0 (less than 50% disease control) | 0 (less than 50% disease control) | 0 (less than 50% disease control) | 2 (greater than 80% disease control) | 2 (greater than 80% disease control) | 0 (less than 50% disease control) | 0 (less than 50% disease control) | 0 (less than 50% disease control) | 0 (less than 50% disease control) | 0 (less than 50% disease control)
CC(C)(C)C1CCC2(CC1)CC(NCc1cccnc1)CO2 (centres unmarked) [Compound 47] | 0 (less than 50% disease control) | 2 (greater than 80% disease control) | 0 (less than 50% disease control) | 0 (less than 50% disease control) | 2 (greater than 80% disease control) | 2 (greater than 80% disease control) | 0 (less than 50% disease control) | 0 (less than 50% disease control) | 0 (less than 50% disease control) | 1 (about 50-80% disease control) | 0 (less than 50% disease control)
CCCCC(CC)NC1COC2(CCC(C(C)(C)C)CC2)C1 (centres unmarked) [Compound 102] | 0 (less than 50% disease control) | 0 (less than 50% disease control) | 1 (about 50-80% disease control) | 0 (less than 50% disease control) | 2 (greater than 80% disease control) | 2 (greater than 80% disease control) | 0 (less than 50% disease control) | 0 (less than 50% disease control) | 0 (less than 50% disease control) | 2 (greater than 80% disease control) | 0 (less than 50% disease control)
CC(C)(C)C1CCC2(CC1)CC(CN)CO2 (centres unmarked) [Compound 181, 8-t-Butyl-3-aminomethyl-1-oxaspiro(4,5)decane] | 0 (less than 50% disease control) | 0 (less than 50% disease control) | 0 (less than 50% disease control) | 0 (less than 50% disease control) | 2 (greater than 80% disease control) | 2 (greater than 80% disease control) | 2 (greater than 80% disease control) | 0 (less than 50% disease control) | 0 (less than 50% disease control) | 0 (less than 50% disease control) | 0 (less than 50% disease control)
CC(C)(C)C1CCC2(CC1)CC(NC1CC3CCC1C3)CO2 (centres unmarked) [Compound 85] | 0 (less than 50% disease control) | 0 (less than 50% disease control) | 2 (greater than 80% disease control) | 0 (less than 50% disease control) | 2 (greater than 80% disease control) | 2 (greater than 80% disease control) | 2 (greater than 80% disease control) | 0 (less than 50% disease control) | 0 (less than 50% disease control) | 1 (about 50-80% disease control) | 0 (less than 50% disease control)
CCCNC1COC2(CCC(C(C)(C)C)CC2)C1 (centres unmarked) [Compound 62] | 0 (less than 50% disease control) | 0 (less than 50% disease control) | 1 (about 50-80% disease control) | 0 (less than 50% disease control) | 2 (greater than 80% disease control) | 2 (greater than 80% disease control) | 0 (less than 50% disease control) | 0 (less than 50% disease control) | 0 (less than 50% disease control) | 0 (less than 50% disease control) | 0 (less than 50% disease control)
CC(C)(C)C1CCC2(CC1)CC(NCc1ccccc1)CO2 (centres unmarked) [Compound 31] | 2 (greater than 80% disease control) | 1 (about 50-80% disease control) | 0 (less than 50% disease control) | 0 (less than 50% disease control) | 2 (greater than 80% disease control) | 2 (greater than 80% disease control) | 0 (less than 50% disease control) | 0 (less than 50% disease control) | 0 (less than 50% disease control) | 1 (about 50-80% disease control) | 0 (less than 50% disease control)
